The record followed here is patent US8071768B2, “Alkylquinoline and alkylquinazoline kinase modulators” (Janssen Pharmaceutica, N.V., priority 2005, dated 2011).

Some results are limits rather than exact numbers.

In the assay the target is T1, TrkB (Homo sapiens, UniProt Q16620).
T1 construct: purchased Upstate 14-507M
Put plainly: Trk B Fluorescence Polarization Kinase Assay. It is filed as biochemical. As to conditions: uncertainty ±10%. The gist of the method: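 The TrkB kinase reaction (50 nM enzyme, 20 ug/mL poly Glu4Tyr, 150 uM ATP, 5 mM MgCl2, 1% DMSO) ran 30 minutes at room temperature and was stopped with EDTA. Phosphorylation was detected by fluorescence-polarization displacement of a fluorescein phosphopeptide from an anti-phosphotyrosine antibody. IC50 came from a variable-slope sigmoidal fit of triplicates.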

T1 sequence (Q16620 32-822): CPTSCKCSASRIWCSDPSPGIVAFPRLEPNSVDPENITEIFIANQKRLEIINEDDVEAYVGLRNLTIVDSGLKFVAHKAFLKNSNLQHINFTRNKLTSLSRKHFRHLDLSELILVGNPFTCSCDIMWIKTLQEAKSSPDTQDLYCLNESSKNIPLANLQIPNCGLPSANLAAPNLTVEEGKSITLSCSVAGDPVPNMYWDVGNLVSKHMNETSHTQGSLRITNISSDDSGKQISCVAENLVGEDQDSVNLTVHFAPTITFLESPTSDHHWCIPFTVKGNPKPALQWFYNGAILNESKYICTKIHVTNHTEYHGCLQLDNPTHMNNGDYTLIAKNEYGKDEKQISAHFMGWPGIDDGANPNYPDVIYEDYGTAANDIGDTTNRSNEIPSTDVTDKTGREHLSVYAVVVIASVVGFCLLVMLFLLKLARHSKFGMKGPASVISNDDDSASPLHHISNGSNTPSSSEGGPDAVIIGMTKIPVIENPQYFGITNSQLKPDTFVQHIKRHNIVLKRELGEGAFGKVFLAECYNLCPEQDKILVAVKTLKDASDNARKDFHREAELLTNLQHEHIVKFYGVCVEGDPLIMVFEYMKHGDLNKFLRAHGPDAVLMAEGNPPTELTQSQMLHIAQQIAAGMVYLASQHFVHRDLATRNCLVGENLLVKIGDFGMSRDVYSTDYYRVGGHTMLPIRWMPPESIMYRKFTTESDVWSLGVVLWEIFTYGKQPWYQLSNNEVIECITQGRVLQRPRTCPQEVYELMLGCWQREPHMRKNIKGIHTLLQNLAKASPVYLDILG

Regarding `CS(=O)(=O)CCNc1ccc2c(C3CCN(C(=O)Nc4ccc(N5CCOCC5)cc4)CC3)ncnc2c1` [Compound 146, 4-[7-(2-Methanesulfonyl-ethylamino)-quinazolin-4-yl]-piperidine-1-carboxylic acid (4-morpholin-4-yl-phenyl)-amide], the IC50 (in general, the concentration that inhibits the measured activity by half) was more than 42 µM. The result for `O=C(Nc1ccc(N2CCOCC2)cc1)N1CCC(c2ncnc3cc(OCCCN4CCC[C@H]4CO)ccc23)CC1` [Compound 119, (S)-4-{7-[3-(2-Hydroxymethyl-pyrrolidin-1-yl)-propoxy]-quinazolin-4-yl}-piperidine-1-carboxylic acid (4-morpholin-4-yl-phenyl)-amide] reads more than 20 µM; that for `CCN1CCN(c2ccc3c(C4CCN(C(=O)Nc5ccc(N6CCOCC6)cc5)CC4)ncnc3c2)CC1` [Compound 136, 4-[7-(4-Ethyl-piperazin-1-yl)-quinazolin-4-yl]-piperidine-1-carboxylic acid (4-morpholin-4-yl-phenyl)-amide], more than 42 µM; that for `COCCCOc1ccc2c(C3CCN(C(=O)Nc4ccc(N5CCOCC5)cc4)CC3)ncnc2c1` [Compound 78, 4-[7-(3-Methoxy-propoxy)-quinazolin-4-yl]-piperidine-1-carboxylic acid (4-morpholin-4-yl-phenyl)-amide], 18.4 µM. With `CN(C)C(=O)N1CCN(CCCOc2ccc3c(C4CCN(C(=O)Nc5ccc(N6CCOCC6)cc5)CC4)ncnc3c2)CC1` [Compound 120, 4-(3-{4-[1-(4-Morpholin-4-yl-phenylcarbamoyl)-piperidin-4-yl]-quinazolin-7-yloxy}-propyl)-piperazine-1-carboxylic acid dimethylamide] the figure was 16.7 µM; with `COC[C@H]1CCCN1c1ccc2c(C3CCN(C(=O)Nc4ccc(N5CCOCC5)cc4)CC3)ncnc2c1` [Compound 130, (R)-4-[7-(2-Methoxymethyl-pyrrolidin-1-yl)-quinazolin-4-yl]-piperidine-1-carboxylic acid (4-morpholin-4-yl-phenyl)-amide], more than 42 µM. The result for `CC(C)Oc1ccc(NC(=O)N2CCC(c3ncnc4cc(OCCCN5CCCC5=O)ccc34)CC2)cc1` [Compound 67, 4-{7-[3-(2-Oxo-pyrrolidin-1-yl)-propoxy]-quinazolin-4-yl}-piperidine-1-carboxylic acid (4-isopropoxy-phenyl)-amide] reads 0.6 µM; that for `COc1cc2ncnc(C3CCN(C(=O)Nc4ccc(C5CCCCC5)cc4)CC3)c2cc1OC` [Compound 21, 4-(6,7-Dimethoxy-quinazolin-4-yl)-piperidine-1-carboxylic acid (4-cyclohexyl-phenyl)-amide], 0.6 µM. `CC(C)Oc1ccc(NC(=O)N2CCC(c3ncnc4ccc(OCCCN5CCCC5=O)cc34)CC2)cc1` [Compound 101, 4-{6-[3-(2-Oxo-pyrrolidin-1-yl)-propoxy]-quinazolin-4-yl}-piperidine-1-carboxylic acid (4-isopropoxy-phenyl)-amide] returned an IC50 of 0.3 µM. `O=C1CCCN1CCOc1ccc2c(C3CCN(C(=O)Nc4cnc(N5CCCC5)nc4)CC3)ncnc2c1` [Compound 84, 4-{7-[2-(2-Oxo-pyrrolidin-1-yl)-ethoxy]-quinazolin-4-yl}-piperidine-1-carboxylic acid (2-pyrrolidin-1-yl-pyrimidin-5-yl)-amide] gave an IC50 of 0.8 µM. `COc1cc2ncnc(C3CCN(C(=O)Nc4ccc(CO)cc4)CC3)c2cc1OC` [Compound 22, 4-(6,7-Dimethoxy-quinazolin-4-yl)-piperidine-1-carboxylic acid (4-hydroxymethyl-phenyl)-amide]: the IC50 was found to be 17.7 µM. In the case of `COc1cc2ncnc(C3CCN(C(=O)Nc4ccc(OC5CCCC5)nc4)CC3)c2cc1OC` [Compound 69, 4-(6,7-Dimethoxy-quinazolin-4-yl)-piperidine-1-carboxylic acid (6-cyclopentyloxy-pyridin-3-yl)-amide], the concentration for half-maximal inhibition (IC50) amounted to 0.15 µM.

`CC(C)c1ccc(NC(=O)N2CCC(c3ncnc4ccccc34)CC2)cc1` [Compound 7, 4-Quinazolin-4-yl-piperidine-1-carboxylic acid (4-isopropyl-phenyl)-amide] gave an IC50 of 3.3 µM. With `COc1cc2ncnc(C3CCN(C(=O)Nc4ccc(OC(F)F)cc4)CC3)c2cc1OC` [Compound 51, 4-(6,7-Dimethoxy-quinazolin-4-yl)-piperidine-1-carboxylic acid (4-difluoromethoxy-phenyl)-amide] the figure was 4 µM; with `CN(C)c1c(NCCCOc2ccc3c(C4CCN(C(=O)Nc5ccc(N6CCCC6)nc5)CC4)ncnc3c2)c(=O)c1=O` [Compound 111, 4-{7-[3-(2-Dimethylamino-3,4-dioxo-cyclobut-1-enylamino)-propoxy]-quinazolin-4-yl}-piperidine-1-carboxylic acid (6-pyrrolidin-1-yl-pyridin-3-yl)-amide], more than 20 µM.

For the compound `CC(C)Oc1ccc(NC(=O)N2CCC(c3ncnc4cc(OCCCOS(C)(=O)=O)ccc34)CC2)cc1` [Compound 121, Methanesulfonic acid 3-{4-[1-(4-isopropoxy-phenylcarbamoyl)-piperidin-4-yl]-quinazolin-7-yloxy}-propyl ester], inhibition was half-maximal at 0.13 µM (IC50).

As for `COc1cc2ncnc(C3CCN(C(=O)Nc4ccc(N5CCCCC5)c(Cl)c4)CC3)c2cc1OC` [Compound 71, 4-(6,7-Dimethoxy-quinazolin-4-yl)-piperidine-1-carboxylic acid (3-chloro-4-piperidin-1-yl-phenyl)-amide], 6.1 µM corresponded to half-maximal inhibition (IC50). With `CC(C)c1ccc(NC(=O)CN2CCC(c3ncnc4ccccc34)CC2)cc1` [Compound 16, N-(4-Isopropyl-phenyl)-2-(4-quinazolin-4-yl-piperidin-1-yl)-acetamide] the figure was 2.6 µM; with `O=C(Nc1ccc(N2CCOCC2)cc1)N1CCC(c2ncnc3cc(OCCCO)ccc23)CC1` [Compound 77, 4-[7-(3-Hydroxy-propoxy)-quinazolin-4-yl]-piperidine-1-carboxylic acid (4-morpholin-4-yl-phenyl)-amide], more than 20 µM; with `CCOc1ccc(NC(=O)N2CCC(c3ncnc4cc(OC)c(OC)cc34)CC2)cc1` [Compound 44, 4-(6,7-Dimethoxy-quinazolin-4-yl)-piperidine-1-carboxylic acid (4-ethoxy-phenyl)-amide], 2.2 µM.

`O=C(Nc1ccc(N2CCOCC2)cc1)N1CCC(c2ncnc3cc(OCCCN4CCNCC4)ccc23)CC1` [Compound 123, 4-[7-(3-piperazin-1-yl-propoxy)-quinazolin-4-yl]-piperidine-1-carboxylic acid (4-morpholin-4-yl-phenyl)-amide]: the IC50 is more than 20 µM.

Compound `COc1cc2ncnc(C3CCN(C(=O)Nc4ccc(Oc5ccccc5)cc4)CC3)c2cc1OC` [Compound 47, 4-(6,7-Dimethoxy-quinazolin-4-yl)-piperidine-1-carboxylic acid (4-phenoxy-phenyl)-amide] gave an IC50 of 4 µM. The result for `O=C(Nc1ccc(N2CCOCC2)cc1)N1CCC(c2ncnc3cc(OCCCN4CCCC4)ccc23)CC1` [Compound 124, 4-[7-(3-Pyrrolidin-1-yl-propoxy)-quinazolin-4-yl]-piperidine-1-carboxylic acid (4-morpholin-4-yl-phenyl)-amide] reads more than 20 µM; that for `CC(C)Oc1ccc(NC(=O)N2CCC(c3ncnc4cc(N(C)C)ccc34)CC2)cc1` [Compound 100, 4-(7-Dimethylamino-quinazolin-4-yl)-piperidine-1-carboxylic acid (4-isopropoxy-phenyl)-amide], 0.1 µM; that for `COc1cc2ncnc(C3CCN(C(=O)NC4CCC(C(C)(C)C)CC4)CC3)c2cc1OC` (centres unmarked) [Compound 54, 4-(6,7-Dimethoxy-quinazolin-4-yl)-piperidine-1-carboxylic acid (4-tert-butyl-cyclohexyl)-amide], 6.2 µM. For the compound `CS(=O)(=O)NCCCOc1ccc2c(C3CCN(C(=O)Nc4ccc(N5CCOCC5)nc4)CC3)ncnc2c1` [Compound 87, 4-[7-(3-Methanesulfonylamino-propoxy)-quinazolin-4-yl]-piperidine-1-carboxylic acid (6-morpholin-4-yl-pyridin-3-yl)-amide], it took 7.2 µM to reach half-maximal inhibition (IC50). The result for `CC(C)Oc1ccc(NC(=O)N2CCC(c3ncnc4cc(Cl)ccc34)CC2)cc1` [Compound 29, 4-(7-Chloro-quinazolin-4-yl)-piperidine-1-carboxylic acid (4-isopropoxy-phenyl)-amide] reads 0.5 µM; that for `CCC(C)c1ccc(NC(=O)N2CCC(c3ncnc4cc(OC)c(OC)cc34)CC2)cc1` (centres unmarked) [Compound 52, 4-(6,7-Dimethoxy-quinazolin-4-yl)-piperidine-1-carboxylic acid (4-sec-butyl-phenyl)-amide], 1.2 µM. The result for `COc1cc2ncnc(C3CCN(C(=O)Nc4ccc5ncsc5c4)CC3)c2cc1OC` [Compound 24, 4-(6,7-Dimethoxy-quinazolin-4-yl)-piperidine-1-carboxylic acid benzothiazol-6-ylamide] reads 35 µM; that for `COc1cc2ncnc(C3CCN(C(=O)Nc4ccc5[nH]ccc5c4)CC3)c2cc1OC` [Compound 23, 4-(6,7-Dimethoxy-quinazolin-4-yl)-piperidine-1-carboxylic acid (1H-indol-5-yl)-amide], 13.3 µM; that for `CS(=O)(=O)NCCCOc1ccc2c(C3CCN(C(=O)Nc4ccc(N5CCOCC5)cc4)CC3)ncnc2c1` [Compound 66, 4-[7-(3-Methanesulfonylamino-propoxy)-quinazolin-4-yl]-piperidine-1-carboxylic acid (4-morpholin-4-yl-phenyl)-amide], more than 42 µM. Consider `CNC(=O)C1CCN(c2ccc3c(C4CCN(C(=O)Nc5ccc(N6CCCC6)cc5)CC4)ncnc3c2)CC1` [Compound 155, 4-[7-(4-Carboxylic acid methylamide-piperidin-1-yl)-quinazolin-4-yl]-piperidine-1-carboxylic acid (4-pyrrolidin-1-yl-phenyl)-amide], for which the IC50 amounted to 11 µM.
